# In paper PMC12649549, “Sequence Permutation Generated Lysine and Tryptophan-Rich Antimicrobial Peptides with Enhanced Therapeutic Index” (Antibiotics, 2025):
# Where two headings read alike, the source gives them in different places.
# What was measured:
# S. aureus ATCC 6538 = tested on: S. aureus ATCC 6538
# Procedure, shortened: (§1)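 MICs came from CLSI broth microdilution, with 5 × 10^5 CFU/mL bacteria exposed to peptide at final 0.78–50 µg/mL. Media were MH broth or LYM broth (pH 7.4), the latter also adjusted for salt (NaCl 50–300 mM, MgCl2 0.5–2.5 mM) or acidity (pH 4.5–6.5); triplicate independent experiments.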
# [1] = tested on: A. baumannii 14B0097 (Acinetobacter sp., BCRC number 14B0097)
# Procedure, shortened: as §1
# S. aureus ATCC 25923 = tested on: S. aureus ATCC 25923
# Procedure, shortened: as §1
# S. aureus ATCC 33592 = tested on: S. aureus ATCC 33592
# Procedure, shortened: as §1
# Gram-positive bacteria = assay: Geometric mean MIC and therapeutic index, Gram-positive bacteria; type: cell-based; details: Gram-positive bacteria; for GM G+ (geometric mean of the MIC values): MH broth, MIC >50 µg/mL counted as 100 µg/mL; for Therapeutic Index (TI) G+: HC10/GM
# Procedure, shortened: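 Overnight MH cultures were regrown and diluted to 5 × 10^5 CFU/mL, then exposed to peptides at 0.78–50 µg/mL final in MH or modified LYM broth following CLSI microdilution. MICs were combined into geometric means, and TI was computed as HC10 (human red blood cells) divided by GM.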
# [2] = LYM broth, 0 mM NaCl, 16 h, 37 °C
# [3] = LYM broth, 50 mM NaCl, 16 h, 37 °C
# [4] = LYM broth, 100 mM NaCl, 16 h, 37 °C
# [5] = LYM broth, 200 mM (NaCl), 16 h, 37 °C
# [6] = LYM broth, 300 mM (NaCl), 16 h, 37 °C
# [7] = MH broth, 5 × 10^5 CFU/mL, 16 h, 37 °C, repeated three times
substance,measurement,setting,value
Ac-WLKWLAKKKKWRK-NH2 [Peptide W5K05],MIC,S. aureus ATCC 6538; [2],3.13 µg/mL
same,MIC,"S. aureus ATCC 6538; LYM broth, 0.5 mM MgCl2",1.56 µg/mL
same,MIC,"S. aureus ATCC 6538; LYM broth, 1.5 mM MgCl2",1.56 µg/mL
same,MIC,"S. aureus ATCC 6538; LYM broth, 2.5 mM MgCl2",3.13 µg/mL
same,MIC,S. aureus ATCC 6538; [3],3.13 µg/mL
same,MIC,S. aureus ATCC 6538; [4],6.25 µg/mL
same,MIC,S. aureus ATCC 6538; [5],12.5 µg/mL
same,MIC,S. aureus ATCC 6538; [6],25 µg/mL
same,MIC,"S. aureus ATCC 6538; LYM broth, pH 4.5",3.13 µg/mL
same,MIC,"S. aureus ATCC 6538; LYM broth, pH 5.5",1.56 µg/mL
same,MIC,"S. aureus ATCC 6538; LYM broth, pH 6.5",1.56 µg/mL
same,MIC,S. aureus ATCC 6538; [7],12.5 µg/mL
same,MIC,[1]; [2],1.56 µg/mL
same,MIC,"[1]; LYM broth, 0.5 mM MgCl2",1.56 µg/mL
same,MIC,"[1]; LYM broth, 1.5 mM MgCl2",1.56 µg/mL
same,MIC,"[1]; LYM broth, 2.5 mM MgCl2",1.56 µg/mL
same,MIC,[1]; [3],3.13 µg/mL
same,MIC,[1]; [4],3.13 µg/mL
same,MIC,[1]; [5],6.25 µg/mL
same,MIC,[1]; [6],25 µg/mL
same,MIC,"[1]; LYM broth, pH 4.5",3.13 µg/mL
same,MIC,"[1]; LYM broth, pH 5.5",1.56 µg/mL
same,MIC,"[1]; LYM broth, pH 6.5",1.56 µg/mL
same,MIC,[1]; [7],6.25 µg/mL
same,MIC,S. aureus ATCC 25923; [2],1.56 µg/mL
same,MIC,"S. aureus ATCC 25923; LYM broth, 0.5 mM MgCl2",1.56 µg/mL
same,MIC,"S. aureus ATCC 25923; LYM broth, 1.5 mM MgCl2",3.13 µg/mL
same,MIC,"S. aureus ATCC 25923; LYM broth, 2.5 mM MgCl2",3.13 µg/mL
same,MIC,S. aureus ATCC 25923; [3],3.13 µg/mL
same,MIC,S. aureus ATCC 25923; [4],6.25 µg/mL
same,MIC,S. aureus ATCC 25923; [5],50 µg/mL
same,MIC,S. aureus ATCC 25923; [6],50 µg/mL
same,MIC,"S. aureus ATCC 25923; LYM broth, pH 4.5",1.56 µg/mL
same,MIC,"S. aureus ATCC 25923; LYM broth, pH 5.5",1.56 µg/mL
same,MIC,"S. aureus ATCC 25923; LYM broth, pH 6.5",1.56 µg/mL
same,MIC,S. aureus ATCC 25923; [7],25 µg/mL
same,MIC,S. aureus ATCC 33592; [2],6.25 µg/mL
same,MIC,"S. aureus ATCC 33592; LYM broth, 0.5 mM MgCl2",12.5 µg/mL
same,MIC,"S. aureus ATCC 33592; LYM broth, 1.5 mM MgCl2",12.5 µg/mL
same,MIC,"S. aureus ATCC 33592; LYM broth, 2.5 mM MgCl2",12.5 µg/mL
same,MIC,S. aureus ATCC 33592; [3],12.5 µg/mL
same,MIC,S. aureus ATCC 33592; [4],12.5 µg/mL
same,MIC,S. aureus ATCC 33592; [5],25 µg/mL
same,MIC,S. aureus ATCC 33592; [6],50 µg/mL
same,MIC,"S. aureus ATCC 33592; LYM broth, pH 4.5",6.25 µg/mL
same,MIC,"S. aureus ATCC 33592; LYM broth, pH 5.5",6.25 µg/mL
same,MIC,"S. aureus ATCC 33592; LYM broth, pH 6.5",3.13 µg/mL
same,MIC,S. aureus ATCC 33592; [7],50 µg/mL
same,GM G+ (geometric mean of the MIC values),Gram-positive bacteria,33.0 µg/mL
same,Therapeutic Index (TI) G+,Gram-positive bacteria,3.3
Ac-WRKWLKWLAKKKK-NH2 [Peptide W5K02],MIC,S. aureus ATCC 6538; [2],6.25 µg/mL
same,MIC,"S. aureus ATCC 6538; LYM broth, 0.5 mM MgCl2",3.13 µg/mL
same,MIC,"S. aureus ATCC 6538; LYM broth, 1.5 mM MgCl2",3.13 µg/mL
same,MIC,"S. aureus ATCC 6538; LYM broth, 2.5 mM MgCl2",6.25 µg/mL
same,MIC,S. aureus ATCC 6538; [3],6.25 µg/mL
same,MIC,S. aureus ATCC 6538; [4],12.5 µg/mL
same,MIC,S. aureus ATCC 6538; [5],25 µg/mL
same,MIC,S. aureus ATCC 6538; [6],50 µg/mL
same,MIC,"S. aureus ATCC 6538; LYM broth, pH 4.5",6.25 µg/mL
same,MIC,"S. aureus ATCC 6538; LYM broth, pH 5.5",3.13 µg/mL
same,MIC,"S. aureus ATCC 6538; LYM broth, pH 6.5",3.13 µg/mL
same,MIC,S. aureus ATCC 6538; [7],12.5 µg/mL
same,MIC,[1]; [2],1.56 µg/mL
same,MIC,"[1]; LYM broth, 0.5 mM MgCl2",1.56 µg/mL
same,MIC,"[1]; LYM broth, 1.5 mM MgCl2",3.13 µg/mL
same,MIC,"[1]; LYM broth, 2.5 mM MgCl2",3.13 µg/mL
same,MIC,[1]; [3],1.56 µg/mL
same,MIC,[1]; [4],1.56 µg/mL
same,MIC,[1]; [5],3.13 µg/mL
same,MIC,[1]; [6],6.25 µg/mL
same,MIC,"[1]; LYM broth, pH 4.5",3.13 µg/mL
same,MIC,"[1]; LYM broth, pH 5.5",3.13 µg/mL
same,MIC,"[1]; LYM broth, pH 6.5",3.13 µg/mL
same,MIC,[1]; [7],3.13 µg/mL
same,MIC,S. aureus ATCC 25923; [2],6.25 µg/mL
same,MIC,"S. aureus ATCC 25923; LYM broth, 0.5 mM MgCl2",6.25 µg/mL
same,MIC,"S. aureus ATCC 25923; LYM broth, 1.5 mM MgCl2",6.25 µg/mL
same,MIC,"S. aureus ATCC 25923; LYM broth, 2.5 mM MgCl2",6.25 µg/mL
same,MIC,S. aureus ATCC 25923; [3],6.25 µg/mL
same,MIC,S. aureus ATCC 25923; [4],12.5 µg/mL
same,MIC,S. aureus ATCC 25923; [5],50 µg/mL
same,MIC,S. aureus ATCC 25923; [6],>50 µg/mL
same,MIC,"S. aureus ATCC 25923; LYM broth, pH 4.5",3.13 µg/mL
same,MIC,"S. aureus ATCC 25923; LYM broth, pH 5.5",3.13 µg/mL
same,MIC,"S. aureus ATCC 25923; LYM broth, pH 6.5",3.13 µg/mL
same,MIC,S. aureus ATCC 25923; [7],25 µg/mL
same,MIC,S. aureus ATCC 33592; [2],6.25 µg/mL
same,MIC,"S. aureus ATCC 33592; LYM broth, 0.5 mM MgCl2",6.25 µg/mL
same,MIC,"S. aureus ATCC 33592; LYM broth, 1.5 mM MgCl2",6.25 µg/mL
same,MIC,"S. aureus ATCC 33592; LYM broth, 2.5 mM MgCl2",6.25 µg/mL
same,MIC,S. aureus ATCC 33592; [3],6.25 µg/mL
same,MIC,S. aureus ATCC 33592; [4],12.5 µg/mL
same,MIC,S. aureus ATCC 33592; [5],50 µg/mL
same,MIC,S. aureus ATCC 33592; [6],>50 µg/mL
same,MIC,"S. aureus ATCC 33592; LYM broth, pH 4.5",6.25 µg/mL
same,MIC,"S. aureus ATCC 33592; LYM broth, pH 5.5",6.25 µg/mL
same,MIC,"S. aureus ATCC 33592; LYM broth, pH 6.5",6.25 µg/mL
same,MIC,S. aureus ATCC 33592; [7],25 µg/mL
same,GM G+ (geometric mean of the MIC values),Gram-positive bacteria,21.8 µg/mL
same,Therapeutic Index (TI) G+,Gram-positive bacteria,0.8
